pEC50, pKi: −log10 of the molar value. Like-named read-outs stand apart in the source and are kept apart here.
Legend:
[1] = rcm bond, DCE
[2] = rcm bond, 14-membered ring, Hoveyda-Grubbs II, DCE
[3] = system: HCV replicons (Huh-7 luc/neo cells, NS3-NS5B regions of HCV type 1b); test: Replicon assay: inhibition of HCV RNA replication in Huh-Luc cells (luciferase read-out); assay type: cell-based; settings: Hepatitis C virus, Huh-7, 72 h, HCV type 1b replicon, luciferase activity after three days
Method: The in vitro antiviral activity against HCV of the compounds of formula (I) was tested in a cellular HCV replicon system based on Lohmann et al. (1999) Science 285:110-113, with the further modifications described by Krieger et al. (2001) Journal of Virology 75: 4614-4624 (incorporated herein by reference), which is further exemplified in the examples section. This model, while not a complete infection model for HCV, is widely accepted as the most robust and efficient model of autonomous HCV RNA replication currently available. […] It will be appreciated that it is important to distinguish between compounds that specifically interfere with HCV functions from those that exert cytotoxic or cytostatic effects in the HCV replicon model, and as a consequence cause a decrease in HCV RNA or linked reporter enzyme concentration. Assays are known in the field for the evaluation of cellular cytotoxicity based for example on the activity of mitochondrial enzymes using fluorogenic redox dyes such as resazurin. Furthermore, cellular counter screens exist for the evaluation of non-selective inhibition of linked reporter gene activity, such as firefly luciferase. Appropriate cell types can be equipped by stable transfection with a luciferase reporter gene whose expression is dependent on a constitutively active gene promoter, and such cells can be used as a counter-screen to eliminate non-selective inhibitors.
The compounds of formula (I) were examined for activity in the inhibition of HCV RNA replication in a cellular assay. […] The cellular assay was based on a bicistronic expression construct, as described by Lohmann et al. (1999) Science vol. 285 pp. 110-113 with modifications described by Krieger et al. (2001) Journal of Virology 75: 4614-4624, in a multi-target screening strategy. In essence, the method was as follows.
The assay utilized the stably transfected cell line Huh-7 luc/neo (hereafter referred to as Huh-Luc). This cell line harbors an RNA encoding a bicistronic expression construct comprising the wild type NS3-NS5B regions of HCV type 1b translated from an Internal Ribosome Entry Site (IRES) from encephalomyocarditis virus (EMCV), preceded by a reporter portion (FfL-luciferase), and a selectable marker portion (neo^R, neomycine phosphotransferase). The construct is bordered by 5′ and 3′ NTRs (non-translated regions) from HCV type 1b. Continued culture of the replicon cells in the presence of G418 (neo^R) is dependent on the replication of the HCV RNA. The stably transfected replicon cells that express HCV RNA, which replicates autonomously and to high levels, encoding inter alia luciferase, are used for screening the antiviral compounds.
The replicon cells were plated in 384 well plates in the presence of the test and control compounds which were added in various concentrations. Following an incubation of three days, HCV replication was measured by assaying luciferase activity (using standard luciferase assay substrates and reagents and a Perkin Elmer ViewLux™ ultraHTS microplate imager). Replicon cells in the control cultures have high luciferase expression in the absence of any inhibitor. The inhibitory activity of the compound on luciferase activity was monitored on the Huh-Luc cells, enabling a dose-response curve for each test compound. EC50 values were then calculated, which value represents the amount of the compound required to decrease by 50% the level of detected luciferase activity, or more specifically, the ability of the genetically linked HCV replicon RNA to replicate.

[4] = target: full-length hepatitis C NS3 protease enzyme (HCV NS3/4A protease complexes) (Hepatitis C virus genotype 1a, UniProt P27958); test: Inhibition assay (enzymatic assay) of HCV NS3/4A protease; assay type: biochemical; settings: enzyme 1 nM, 25 μM NS4A cofactor, 0.5 μM depsipeptide substrate, 30° C., competitive model
full-length hepatitis C NS3 protease enzyme (HCV NS3/4A protease complexes), sequence (P27958 1027-1657, one chain of several): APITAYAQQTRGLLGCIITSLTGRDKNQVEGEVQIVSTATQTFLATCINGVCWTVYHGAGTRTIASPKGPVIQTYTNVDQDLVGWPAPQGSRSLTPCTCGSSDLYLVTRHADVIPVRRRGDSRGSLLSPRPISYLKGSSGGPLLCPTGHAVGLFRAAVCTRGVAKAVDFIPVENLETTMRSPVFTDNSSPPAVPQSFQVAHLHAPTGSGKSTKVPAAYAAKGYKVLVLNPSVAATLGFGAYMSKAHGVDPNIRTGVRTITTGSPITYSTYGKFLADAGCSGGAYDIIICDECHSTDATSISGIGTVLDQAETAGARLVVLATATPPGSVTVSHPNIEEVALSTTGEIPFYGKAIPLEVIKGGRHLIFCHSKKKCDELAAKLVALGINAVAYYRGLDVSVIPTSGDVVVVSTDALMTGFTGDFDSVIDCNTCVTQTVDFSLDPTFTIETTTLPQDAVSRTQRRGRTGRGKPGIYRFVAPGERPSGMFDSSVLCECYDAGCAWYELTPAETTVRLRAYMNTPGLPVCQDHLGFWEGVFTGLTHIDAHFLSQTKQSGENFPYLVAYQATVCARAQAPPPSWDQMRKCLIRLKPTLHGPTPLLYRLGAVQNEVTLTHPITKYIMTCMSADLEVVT
Method: The aim of this in vitro assay is to measure the inhibition of HCV NS3/4A protease complexes by the compounds of the present invention. This assay provides an indication of how effective compounds of the present invention would be in inhibiting HCV NS3/4A proteolytic activity.
The inhibition of full-length hepatitis C NS3 protease enzyme was measured essentially as described in Poliakov, 2002 Prot Expression & Purification 25 363 371. Briefly, the hydrolysis of a depsipeptide substrate, Ac-DED(Edans)EEAbuψ[COO]ASK(Dabcyl)-NH2 (AnaSpec, San José, USA), was measured spectrofluorometrically in the presence of a peptide cofactor, KKGSVVIVGRIVLSGK (Åke Engström, Department of Medical Biochemistry and Microbiology, Uppsala University, Sweden). [Landro, 1997 #Biochem 36 9340-9348]. The enzyme (1 nM) was incubated in 50 mM HEPES, pH 7.5, 10 mM DTT, 40% glycerol, 0.1% n-octyl-D-glucoside, with 25 μM NS4A cofactor and inhibitor at 30° C. for 10 min, whereupon the reaction was initiated by addition of 0.5 μM substrate. Inhibitors were dissolved in DMSO, sonicated for 30 sec. and vortexed. The solutions were stored at −20° C. between measurements.
The final concentration of DMSO in the assay sample was adjusted to 3.3%. The rate of hydrolysis was corrected for inner filter effects according to published procedures. [Liu, 1999 Analytical Biochemistry 267 331-335]. Ki values were estimated by non-linear regression analysis (GraFit, Erithacus Software, Staines, MX, UK), using a model for competitive inhibition and a fixed value for Km (0.15 μM). A minimum of two replicates was performed for all measurements.

[5] = 14-membered ring, Hoveyda-Grubbs I, with chain assembly

## COc1ccc2c(OC3CC4C(=O)NC5(C(=O)O)CC5C=CCCCCN(C)C(=O)N4C3)nc(-c3ccc(F)cc3)nc2c1C (stereo not drawn)
[1]; [5]
  ring closure, isolated yield: 20%

## CCOC(=O)C12CC1C=CCCCCN(C)C(=O)C1CC(Oc3nc(-c4ccc(OC)cc4)nc4c(C)c(OC)ccc34)CC1C(=O)N2 (stereo not drawn)
[1]; from C=CCCCCN(C)C(=O)C1CC(Oc2nc(-c3ccc(OC)cc3)nc3c(C)c(OC)ccc23)CC1C(=O)NC1(C(=O)OCC)CC1C=C, 14-membered ring, Hoveyda-Grubbs II, 1.71 mM, 16.0 h
  ring closure, isolated yield: 75%

## COc1ccc2c(OC3CC4C(=O)NC5(C(=O)O)CC5C=CCCCCN(C)C(=O)N4C3)ncnc2c1C (stereo not drawn)
[1]; [5]
  ring closure, isolated yield: 8%

## CCOC(=O)C12CC1C=CCCCCN(C)C(=O)C1CC(Oc3nc(-c4cccc(F)c4)nc4c(C)c(OC)ccc34)CC1C(=O)N2 (stereo not drawn)
[1]; from C=CCCCCN(C)C(=O)C1CC(Oc2nc(-c3cccc(F)c3)nc3c(C)c(OC)ccc23)CC1C(=O)NC1(C(=O)OCC)CC1C=C, 14-membered ring, Hoveyda-Grubbs II, 1.49 mM, 16.0 h
  ring closure, isolated yield: 70%

## 17-[2-(4-Isopropyl-thiazol-2-yl)-7-methoxy-quinazolin-4-yloxy]-13-methyl-2,14-dioxo-3,13-diaza-tricyclo[13.3.0.0*4,6*]octadec-7-ene-4-carboylic acid ethyl ester
[1]; 14-membered ring, Hoveyda-Grubbs II, 1.45 mM, 90.0 °C
  ring closure, isolated yield: 46%

## CCOC(=O)C12CC1C=CCCCCCN(Cc1ccc(OC)cc1)C(=O)N1CC(OC(=O)c3ccc([N+](=O)[O-])cc3)CC1C(=O)N2 (stereo not drawn)
[1]; from C=CCCCCCN(Cc1ccc(OC)cc1)C(=O)N1CC(OC(=O)c2ccc([N+](=O)[O-])cc2)CC1C(=O)NC1(C(=O)OCC)CC1C=C, 15-membered ring, Hoveyda-Grubbs II (5 mol%), then LiOH, 0.74 mM, 2 steps
  ring closure, isolated yield: 61%

## CN1CCCCC=CC2CC2(C(=O)NS(=O)(=O)C2CC2)NC(=O)C2CC(Oc3nc(N4CCOCC4)nc4ccccc34)CC2C1=O (stereo not drawn)
[2]; from 4-(2-Morpholin-4-yl-quinazolin-4-yloxy)-cyclopentane-1,2-dicarboxylic acid 1-[(1-cyclopropanesulfonylaminocarbonyl-2-vinyl-cyclopropyl)-amide]2-(hex-5-enyl-methyl-amide), 1.63 mM, 150.0 °C
  ring closure, yield after HPLC: 56%

## 17-(7-Methoxy-2-phenyl-quinazolin-4-yloxy-13-methyl-2,14-dioxo-3,13-diazatricyclo[13.3.0.0*4,6*]octadec-7-ene-4-carboxylic acid ethyl ester
[1]; 14-membered ring, Hoveyda-Grubbs I, 1.1 mM
  ring closure, isolated yield: 40%

## COc1ccc2c(O[C@@H]3C[C@H]4C(=O)NC5(C(=O)NS(=O)(=O)C6CC6)C[C@H]5/C=C\CCCCN(C)C(=O)N4C3)nc(-c3ccc(F)cc3)nc2c1C (stereo partly drawn) [Compound 98, Cyclopropanesulfonic acid {17-[2-(4-fluoro-phenyl-(7-methoxy-8-methyl-quinazolin-4-yloxy)-13-methyl-2,14-dioxo-3,13,15-triaza-tricyclo[13.3.0.0*4,6*]octadec-7-ene-4-carbonyl}-amide]
[3]
  pEC50: 6.70 to 9.30
[4]
  pKi: 8.31 to 10.00

## COc1ccc2c(O[C@@H]3C[C@H]4C(=O)N[C@]5(C(=O)NS(=O)(=O)C6CC6)C[C@H]5/C=C\CCCCN(C)C(=O)N4C3)nc(-c3cccc(F)c3)nc2c1C [Compound 165, Cyclopropanesulfonic acid {17-[2-(3-fluoro-phenyl)-7-methoxy-8-methyl-quinazolin-4-yloxy]-13-methyl-2,14-dioxo-3,13,15-triaza-tricyclo[13.3.0.0*4,6*]octadec-7-ene-4-carbonyl}-amide]
[3]
  pEC50: 6.70 to 9.30
[4]
  pKi: 8.31 to 10.00

## CN1CCN(c2nc(OC3CC4C(=O)NC5(C(=O)NS(=O)(=O)C6CC6)CC5C=CCCCCN(C)C(=O)C4C3)c3ccccc3n2)CC1 (stereo not drawn)
[2]; from 4-[2-(4-Methyl-piperazin-1-yl)-quinazolin-4-yloxy]-cyclopentane-1,2-dicarboxylic acid 1-[(1-cyclopropanesulfonylaminocarbonyl-2-vinyl-cyclopropyl)amide]2-(hex-5-enyl-methyl-amide), 1.61 mM, 150.0 °C
  ring closure, yield after HPLC: 22%

## COc1ccc(-c2nc(O[C@@H]3C[C@H]4C(=O)N[C@]5(C(=O)NS(=O)(=O)C6CC6)C[C@H]5/C=C\CCCCN(C)C(=O)N4C3)c3ccc(OC)c(C)c3n2)cc1 [Compound 131, Cyclopropanesulfonic acid {17-[7-methoxy-2-(4-methoxy-phenyl)-8-methyl-quinazolin-4-yloxy]-13-methyl-2,14-dioxo-3,13,15-triaza-tricyclo[13.3.0.0*4,6*]-octadec-7-ene-4-carbonyl}-amide]
[3]
  pEC50: 6.70 to 9.30
[4]
  pKi: 8.31 to 10.00

## CN1CCCCC=CC2CC2(C(=O)NS(=O)(=O)C2CC2)NC(=O)C2CC(Oc3nc(-c4ccccc4)nc4ccccc34)CC2C1=O (stereo not drawn)
[2]; from 4-(2-Phenyl-quinazolin-4-yloxy)-cyclopentane-1,2-dicarboxylic acid 1-[(1 cyclo-propanesulfonecarbonyl-2-vinylcyclopropyl)-amide]2-(hex-5-enylmethylamide), 1.72 mM, 150.0 °C
  ring closure, yield after HPLC: 29%

## Cyclopropanesulfonic acid {17-[2-(4-isopropyl-thiazol-2-yl)-quinazolin-4-yloxy-]-13-methyl-2,14-dioxo-3,13-diaza-tricyclo[13.3.0.0*4,6*]octadec-7-ene-4-carbonyl}-amide
[2]; 1.67 mM, 15.0 °C
  ring closure, yield after HPLC: 64%

## COc1cc2nc(-c3ccccc3)nc(O[C@@H]3C[C@H]4C(=O)N[C@]5(C(=O)NS(=O)(=O)C6CC6)C[C@H]5/C=C\CCCCN(C)C(=O)[C@@H]4C3)c2cc1C [Compound 114]
[3]
  pEC50: 6.70 to 9.30
[4]
  pKi: 8.31 to 10.00

## COc1ccc2c(O[C@@H]3C[C@H]4C(=O)N[C@]5(C(=O)NS(=O)(=O)C6CC6)C[C@H]5/C=C\CCCCCNC(=O)N4C3)nc(-c3ccc(F)cc3)nc2c1C [Compound 104, Cyclopropanesulfonic acid {18-[2-(4-fluoro-phenyl)-7-methoxy-8-methyl-quinazolin-4-yloxy]-2,15-dioxo-3,14,16-triaza-tricyclo[14.3.0.0*4,6*]nonadec-7-ene-4-carbonyl}-amide]
[3]
  pEC50: 6.70 to 9.30
[4]
  pKi: 8.31 to 10.00
